Counter-ions that a name gives are not always drawn.

One assay has as its system leukotriene pathway in human whole blood (LTB4 levels). The assay is described as follows: Human whole blood assay (A23187-stimulated LTB4). The class given is cell-based. The conditions noted are these: Homo sapiens, human whole blood diluted 1:1, A23187-stimulated; read-out: LTB4 IC50 1:1. How it is done: The ability of the compounds of the present invention to treat a FLAP-mediated disease and/or disorder, or associated symptoms or complications thereof, was determined using the following procedures. Binding assay data represent the average value obtained from two different assay plates, with samples run in duplicate on each plate. Human whole blood assay data represent a single replicate on an assay plate using whole blood from at least one healthy donor.
An in vitro cellular assay was performed using human whole blood collected in heparin-containing tubes, which was used to test the ability of compounds to modulate the leukotriene pathway in human whole blood. The blood was diluted 1:1 in RPMI medium, pre-incubated for 15 min at 37° Celsius with test compounds at various concentrations, and then stimulated with calcium ionophore, A23187 (7 μg/mL), for 30 min at 37° Celsius. The samples were then centrifuged and plasma was removed. The plasma was diluted in assay buffer and LTB4 levels were measured using a commercial kit (Enzo Life Sciences). The concentration of each compound that was required for half-maximal inhibition (modulation) of recombinant enzyme activity (IC50) was calculated by a 4-parameter equation using the program GraphPad Prism (GraphPad software).
`CC1CN(C(=O)c2ccccc2-c2ccc(-c3cnc(N)cn3)c(F)c2)CC(C)O1` (mixture of isomers) [Example 773, 5-{2′-[(2,6-Dimethylmorpholin-4-yl)carbonyl]-3-fluorobiphenyl-4-yl}pyrazin-2-amine (diastereoisomeric mixture)]: the IC50 came out at 639 nM.

As for `Nc1ncc(-c2ccc(-c3ccccc3S(=O)(=O)N3CCCC(O)C3)cc2F)cc1F` (racemic) [Example 668, (racemic)-1-((4′-(6-Amino-5-fluoropyridin-3-yl)-3′-fluoro-[1,1′-biphenyl]-2-yl)sulfonyl)piperidin-3-ol], the IC50 stood at 190 nM.

Turning to `Nc1cnc(-c2ccc(-c3cccnc3S(=O)(=O)C3CCNC3)cc2F)cn1` (racemic) [Example 803, racemic 5-(2-Fluoro-4-(2-(pyrrolidin-3-ylsulfonyl)pyridin-3-yl)phenyl)pyrazin-2-amine hydrochloride], the half-inhibitory concentration (IC50) was 241 nM. Consider `CCC(C)S(=O)(=O)c1ncccc1-c1ccc(-c2cnc(N)nc2)c(F)c1` (racemic) [Example 813, racemic 5-(4-(2-(sec-Butylsulfonyl)pyridin-3-yl)-2-fluorophenyl)pyrimidin-2-amine formate], for which the IC50 is 75.1 nM. Consider `CCC(C)S(=O)(=O)c1ncccc1-c1ccc(-c2cnc(N)cn2)c(F)c1` (racemic) [Example 814, racemic 5-(4-(2-(sec-Butylsulfonyl)pyridin-3-yl)-2-fluorophenyl)pyrazin-2-amine formate], for which the IC50 worked out at 20.9 nM.

Still in this assay, the particulars now being: Homo sapiens, human whole blood diluted 1:1 in RPMI, A23187-stimulated LTB4; read-out: LTB4 IC50 1:1.
For `N#CC1CCCN(S(=O)(=O)c2ccccc2-c2ccc(-c3cnc(N)cn3)c(F)c2)C1` (racemic) [Example 63, racemic 1-{[4′-(5-Aminopyrazin-2-yl)-3′-fluorobiphenyl-2-yl]sulfonyl}piperidine-3-carbonitrile], the IC50 was 28 nM. On to `Nc1cnc(-c2ccc(-c3ccccc3S(=O)(=O)N3CCCC(O)C3)cc2F)cn1` (racemic) [Example 70, racemic 1-{[4′-(5-Aminopyrazin-2-yl)-3′-fluorobiphenyl-2-yl]sulfonyl}piperidin-3-ol], for which the IC50 stood at 10 nM. On to `Nc1cnc(-c2ccc(-c3ccccc3S(=O)(=O)N3CCCC(CO)C3)cc2F)cn1` (racemic) [Example 76, racemic (1-{[4′-(5-Aminopyrazin-2-yl)-3′-fluorobiphenyl-2-yl]sulfonyl}piperidin-3-yl)methanol], for which the IC50 was determined as 27 nM. Consider `Nc1cnc(-c2ccc(-c3ccccc3S(=O)(=O)N[C@H]3CCCC[C@@H]3CO)cc2F)cn1` (racemic) [Example 121, racemic (trans)-4′-(5-Aminopyrazin-2-yl)-3′-fluoro-N-[2-(hydroxymethyl)cyclohexyl]biphenyl-2-sulfonamide], for which the IC50 was found to be 10 nM. For the compound `Nc1cnc(-c2ccc(-c3ccccc3S(=O)(=O)N3C[C@H](O)[C@@H](N4CCOCC4)C3)cc2F)cn1` (racemic) [Example 187, Racemic-1-{[4′-(5-Aminopyrazin-2-yl)-3′-fluorobiphenyl-2-yl]sulfonyl}-4-morpholin-4-ylpyrrolidin-3-ol trifluoroacetic acid salt], the IC50 amounted to 69 nM. On to `CN1CCN([C@@H]2CN(S(=O)(=O)c3ccccc3-c3ccc(-c4cnc(N)cn4)c(F)c3)C[C@H]2O)CC1` (racemic) [Example 188, Racemic-1-{[4′-(5-Aminopyrazin-2-yl)-3′-fluorobiphenyl-2-yl]sulfonyl}-4-(4-methylpiperazin-1-yl)-pyrrolidin-3-ol trifluoroacetic acid salt], for which the IC50 was found to be 1180 nM. With `CC(NS(=O)(=O)c1ccccc1-c1ccc(-c2cnc3[nH]ccc3n2)c(F)c1)C(F)(F)F` (racemic) [Example 376, racemic 3′-Fluoro-4′-(5H-pyrrolo[2,3-b]pyrazin-2-yl)-N-(2,2,2-trifluoro-1-methylethyl)biphenyl-2-sulfonamide], the IC50 is 10 nM. With `Nc1cnc(-c2ccc(-c3ccccc3S(=O)(=O)N[C@H]3CCCCNC3=O)cc2F)cn1` (stereo in doubt) [Example 28, (S)-4′-(5-Aminopyrazin-2-yl)-3′-fluoro-N-[(3S)-2-oxoazepan-3-yl]biphenyl-2-sulfonamide], the IC50 was 325 nM. In the case of `CC(CO)NS(=O)(=O)c1ccccc1-c1ccc(-c2cnc(N)cn2)c(F)c1` (stereo in doubt) [Example 32, 4′-(5-Aminopyrazin-2-yl)-3′-fluoro-N-[(1S)-2-hydroxy-1-methylethyl]biphenyl-2-sulfonamide], the IC50 was determined as 30 nM.

In another assay the target is human FLAP (Homo sapiens (Human), UniProt P20292). The assay is described as follows: FLAP binding assay (HTRF format). The conditions noted are these: read-out: FLAP Binding wild type HTRF Ki. An outline of the steps: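 Read-out is the HTRF ratio. Each reported figure averages two assay plates on which samples were tested in duplicate.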
Chain of human FLAP (P20292 whole entry): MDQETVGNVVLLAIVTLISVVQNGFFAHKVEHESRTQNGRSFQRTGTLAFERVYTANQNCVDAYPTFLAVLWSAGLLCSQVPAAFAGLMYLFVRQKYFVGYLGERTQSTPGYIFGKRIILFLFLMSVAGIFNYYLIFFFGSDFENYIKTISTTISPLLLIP
As to `Nc1ncc(-c2ccc(-c3cccnc3S(=O)(=O)C3CCNC3)cc2F)cn1` (centres unmarked) [Example 804, 5-(2-Fluoro-4-(2-(pyrrolidin-3-ylsulfonyl)pyridin-3-yl)phenyl)pyrimidin-2-amine formic acid salt], the Ki was determined as 636 nM. Same read-out and setting: in the case of `Nc1ncc(-c2ccc(-c3cccnc3S(=O)(=O)C3CCNCC3)cc2F)cn1` [Example 827, 5-{2-Fluoro-4-[2-(piperidin-4-ylsulfonyl)pyridin-3-yl]phenyl}pyrimidin-2-amine formic acid salt] it was > 10000 nM.

Still in this assay, the particulars now being: wild type FLAP, HTRF format.
As to `Nc1cnc(-c2ccc(-c3cccnc3C(=O)N3CCOCC3)cc2F)cn1` [Example 783, 5-{2-Fluoro-4-[2-(morpholin-4-ylcarbonyl)pyridin-3-yl]phenyl}pyrazin-2-amine], the Ki is > 10000 nM. Take `Nc1ncc(-c2ccc(-c3ccccc3C(=O)N3CC(O)C3)cc2F)cn1` [Example 791, [2-[4-(2-Aminopyrimidin-5-yl)-3-fluoro-phenyl]phenyl]-(3-hydroxyazetidin-1-yl)methanone]: the Ki is > 10000 nM. `CNC1CCN(C(=O)c2ccccc2-c2ccc(-c3cnc(N)nc3)c(F)c2)CC1` [Example 792, [2-[4-(2-Aminopyrimidin-5-yl)-3-fluoro-phenyl]phenyl]-[4-(methylamino)-1-piperidyl]methanone]: the Ki was > 10000 nM. Compound `Nc1ncc(-c2ccc(-c3ccc(C(F)(F)F)cc3C(=O)N3CCC(O)CC3)cc2F)cn1` [Example 796, [2-[4-(2-Aminopyrimidin-5-yl)-3-fluoro-phenyl]-5-(trifluoromethyl)phenyl]-(4-hydroxy-1-piperidyl)methanone] showed a Ki of 391 nM.

As to `Nc1ncc(-c2ccc(-c3ccccc3C(=O)NC3CCOCC3)cc2F)cn1` [Example 797, 2-[4-(2-Aminopyrimidin-5-yl)-3-fluoro-phenyl]-N-tetrahydropyran-4-yl-benzamide], the Ki was > 10000 nM. For `CC(C)(C)C(=O)Nc1ncccc1-c1ccc(-c2cnc(N)nc2)c(F)c1` [Example 800, N-{3-[4-(2-Aminopyrimidin-5-yl)-3-fluorophenyl]pyridin-2-yl}-2,2-dimethylpropanamide], the Ki is > 10000 nM. Still for that read-out and setting: in the case of `CC(C)(C)C(=O)Nc1ncccc1-c1ccc(-c2cnc(N)cn2)c(F)c1` [Example 801, N-{3-[4-(5-Aminopyrazin-2-yl)-3-fluorophenyl]pyridin-2-yl}-2,2-dimethylpropanamide] it was > 10000 nM; in that of `COCCCS(=O)(=O)c1ncccc1-c1ccc(-c2cnc(N)nc2)c(F)c1` [Example 817, 5-(2-Fluoro-4-(2-((3-methoxypropyl)sulfonyl)pyridine-3-yl)phenyl)pyrimidin-2-amine hydrogen chloride salt], 463 nM.

In the case of `Nc1ncc(-c2ccc(-c3cccnc3S(=O)(=O)CCN3CCOCC3)cc2F)cn1` [Example 821, 5-(2-Fluoro-4-(2-((2-morpholinoethyl)sulfonyl)pyridine-3-yl)phenyl)pyrimidin-2-amine formic acid salt], the Ki was > 10000 nM. With `Nc1cnc(-c2ccc(-c3cccnc3S(=O)(=O)C3CCNCC3)cc2F)cn1` [Example 832, 5-{2-Fluoro-4-[2-(piperidin-4-ylsulfonyl)pyridin-3-yl]phenyl}pyrazin-2-amine hydrochloride], the Ki came out at 1310 nM. Turning to `Nc1cnc(-c2ccc(-c3ccccc3)c(F)c2F)cn1` [Example 833, 5-(2,3-Difluorobiphenyl-4-yl)pyrazin-2-amine], the Ki is ~500 nM. As for `Nc1cnc(-c2ccc(-c3cc(C(F)(F)F)ccc3-c3cnc(N)nc3)cc2F)cn1` [Example 845, 5-[4′-(5-Aminopyrazin-2-yl)-3′-fluoro-5-(trifluoromethyl)biphenyl-2-yl]pyrimidin-2-amine], the inhibition constant Ki was > 10000 nM. Take `Nc1ncc(-c2ccccc2-c2cnc(-c3cnc(N)nc3)c(F)c2)cn1` [Example 854, 5-{2-[6-(2-Aminopyrimidin-5-yl)-5-fluoropyridin-3-yl]phenyl}pyrimidin-2-amine]: the affinity, expressed as Ki, was 1280 nM. For the compound `Nc1ncc(-c2ccc(-c3ccccc3-c3cnc(N)nc3)cn2)cn1` [Example 855, 5-{5-[2-(2-Aminopyrimidin-5-yl)phenyl]pyridin-2-yl}pyrimidin-2-amine], the Ki was > 10000 nM. As for `Nc1cnc(-c2ccc(-c3cccnc3N3CCCC3)cc2F)cn1` [Example 859, 5-[2-Fluoro-4-(2-pyrrolidin-1-ylpyridin-3-yl)phenyl]pyrazin-2-amine], the Ki is ~1250 nM. As for `Nc1cnc(-c2ccc(-c3ccccc3N3CCCC3=O)cc2F)cn1` [Example 860, 1-[4′-(5-Aminopyrazin-2-yl)-3′-fluorobiphenyl-2-yl]pyrrolidin-2-one], the Ki was ~1480 nM.
